Data on 22 molecules can be found in patent publication US4339576A, “Anti-asthmatic, anti-allergic, anti-cholinergic, bronchodilator and anti-inflammatory 1-[(benzoylphenyl)-lower-alkyl]piperidines and analogs thereof” (Sterling Drug Inc., priority 1981, dated 1982).

Data set [1] deals with guinea pig tracheal contractions by barium. The experiment in a line: Relaxation of guinea pig tracheal contractions by barium. To be noted: guinea pig trachea.
Data set [2] deals with guinea pig tracheal contractions by carbachol. The experiment in a line: Relaxation of guinea pig tracheal contractions by carbachol. To be noted: guinea pig trachea, read-out: EC50 (effective concentration to produce 50% relaxation), Carb.
Data set [3] deals with carrageenin-induced foot edema. The experiment in a line: Inhibition of carrageenin-induced foot edema (C.E.). The format is in vivo, rats. To be noted: Rattus norvegicus, read-out: percent inhibition, C.E.
Data set [4] in a line: Toxicity observations in the carrageenin edema test. The class given is in vivo. To be noted: C.E. test, .324 millimoles/kg, oral, rats; for dead: animals dead. The procedure:
Anti-inflammatory activity was determined using (1) the inhibition of carrageenin-induced foot edema test described by Winter et al., Proc. Soc. […] Therap. […] J. Vet.
All data were obtained on oral administration in rats.

For data set [5], the system named is adjuvant-induced arthritis. The experiment in a line: Inhibition of adjuvant-induced arthritis (A.A.). The format is in vivo. To be noted: Rattus norvegicus, oral, rats, read-out: percent inhibition, A.A.; for inhibition in vivo at 80 µmol/kg: .08 millimoles/kg; for inhibition in vivo at 40 µmol/kg: .04 millimoles/kg; for inhibition in vivo at 324 µmol/kg: .324 millimoles/kg.

In data set [6] the test system is histamine induced bronchoconstriction. The data set can be described thus: Histamine induced bronchoconstriction test in anesthetized dogs. The class given is in vivo. To be noted: intraduodenally; for ED40: Canis lupus familiaris, intraduodenal, read-out: AED40 (Approximate Effective Dose resulting in 40% inhibition of bronchoconstriction).
Data set [7] concerns acetylcholine-induced abdominal constriction. The experiment in a line: Acetylcholine-induced abdominal constriction test (Ach). The class given is in vivo, mice. To be noted: Mus musculus.
Another data set concerns bradykinin. The data set can be described thus: Anti-bradykinin test (BDK). The class given is in vivo. To be noted: po.
The subject of data set [8] is passive cutaneous anaphylaxis. The experiment in a line: Passive cutaneous anaphylaxis test (PCA). To be noted: rats. More on the design: key: Actv.: active; Weak: weakly active; Inac.: inactive. The format is in vivo.
The next data set has as its system human basophils. The experiment in a line: In vitro histamine release from human basophils test. To be noted: for EC50: read-out: AEC50 (Approximate Effective Concentration resulting in 50% inhibition of allergic release of histamine). The class given is cell-based.

Where a name gives a salt, the structure may show the parent alone. Read-outs that look alike come from different tables or passages of the source.

Regarding `CC(=O)N(C)C1CCN(CC(C)c2ccc(C(=O)c3ccccc3)cc2)CC1.Cl` (stereo not shown) [Example 3G, 1-[2-(4-Benzoylphenyl)propyl]-4-(N-acetyl-N-methylamino)piperidine hydrochloride], in data set [1], the “Ba (active or inactive)” value is listed as “Inact”. In addition, in [2], the EC50 amounted to 0.34 µM.
For `CC(C(=O)N1CCC(CN2CCCCC2)CC1)c1cccc(C(=O)c2ccccc2)c1` (stereo not drawn) [Example 1A, 1-[α-(3-benzoylphenyl)propionyl]-4-(1-piperidinylmethyl)piperidine], in data set [3] (.08 millimoles/kg, oral, rats), the inhibition in vivo at 80 µmol/kg was 14%. Also, in data set [4], the “Toxic (result in words)” value is given as “Toxic” and the dead is reported as 6/8.
In the case of `CC(=O)NC1CCN(CC(C)c2ccc(C(O)c3ccccc3)cc2)CC1` (stereo not drawn) [Example 7, 1-[2-(α-hydroxy-4-benzylphenyl)propyl]-4-acetylaminopiperidine], the “Ba (active or inactive)” value in data set [1] is on record as “Slightly Active”. Moreover, the EC50 in data set [2] amounted to 2.9 µM.
As for `CC(C(=O)N1CCCCC1CN1CCOCC1)c1cccc(C(=O)c2ccccc2)c1` (stereo not drawn) [Example 1B, 1-[α-(3-Benzoylphenyl)propionyl]-2-(4-morpholinylmethyl)piperidine hydrochloride], the inhibition in vivo at 80 µmol/kg in data set [3] (.08 millimoles/kg, oral, rats) came out at 9%; in data set [5], 0%. In data set [3] (.324 millimoles/kg, oral, rats), the inhibition in vivo at 324 µmol/kg stood at 67%.
What is called ED50 is the midpoint of the dose-response relation. As for `CC(CN1CCC(N)CC1)c1ccc(C(=O)c2ccccc2)cc1.Cl.Cl` (stereo not shown) [Example 5A, 1-[2-(4-benzoylphenyl)propyl]-4-aminopiperidine-dihydrochloride], the “AED40 (Approximate Effective Dose resulting in 40% inhibition of bronchoconstriction)” value in data set [6] is “Inac”. The molecule also displayed an ED50 in data set [7] (po) of 42 mg/kg.
For `CC(CN1CCC(CN2CCCCC2)CC1)c1cccc(C(=O)c2ccccc2)c1` (stereo not shown) [Example 2, 1-[2-(3-benzoylphenyl)propyl]-4-(1-piperidinylmethyl)piperidine dihydrochloride], the inhibition in vivo at 80 µmol/kg was determined as 47% in data set [3] (.08 millimoles/kg, oral, rats) and 95% in data set [5]. For the same molecule, the inhibition in vivo at 324 µmol/kg worked out at 64% in data set [3] (.324 millimoles/kg, oral, rats) and 9% in [5]. Besides, the ED50 in the data set with bradykinin came to 24 mg/kg; in [7] (po), 22 mg/kg; in data set [7] (sc), 11 mg/kg. In data set [5] (.02 millimoles/kg), the inhibition in vivo at 20 µmol/kg was 59%. Further, in data set [5], the inhibition in vivo at 40 µmol/kg is 67%.
With `CC(C(=O)N1CCC(CN2CCOCC2)CC1)c1cccc(C(=O)c2ccccc2)c1` (stereo not drawn) [Example 1C, 1-[α-(3-Benzoylphenyl)propionyl]-4-(4-morpholinylmethyl)piperidine hydrochloride], the inhibition in vivo at 80 µmol/kg in data set [3] (.08 millimoles/kg, oral, rats) stood at 18%; in [5], 30%. Further, in [3] (.324 millimoles/kg, oral, rats), the inhibition in vivo at 324 µmol/kg was 61%.
As to `CC(=O)NC1CCN(CC(C)c2cccc(C(=O)c3ccccc3)c2)CC1.Cl` (stereo not shown) [Example 3A, 1-[2-(3-benzoylphenyl)propyl]-4-acetylaminopiperidine hydrochloride], the inhibition in vivo at 80 µmol/kg in data set [3] (.08 millimoles/kg, oral, rats) turned out to be 29%; in data set [5], 75%. The inhibition in vivo at 324 µmol/kg in data set [3] (.324 millimoles/kg, oral, rats) worked out at 58%. The ED50 with bradykinin was determined as 24 mg/kg; in [7] (po) it was 3.6 mg/kg. In data set [4], the dead was 2/8.
On to `CC(C(=O)N1CCCC(CN2CCOCC2)C1)c1cccc(C(=O)c2ccccc2)c1.Cl` (stereo not drawn) [Example 1D, 1-[α-(3-Benzoylphenyl)propionyl]-3-(4-morpholinylmethyl)piperidine hydrochloride], for which the inhibition in vivo at 80 µmol/kg stood at 0% in data set [3] (.08 millimoles/kg, oral, rats) and 37% in data set [5]. Further, the inhibition in vivo at 324 µmol/kg in data set [3] (.324 millimoles/kg, oral, rats) was found to be 65%. Further, in data set [8], the “PCA activity (qualitative statement)” value is “Actv”.
Turning to `CCCC(=O)NC1CCN(CC(C)c2ccc(C(=O)c3ccccc3)cc2)CC1` (stereo not shown) [Example 6B, 1-[2-(4-Benzoylphenyl)propyl]-4-butyrylaminopiperidine], the inhibition in vivo at 80 µmol/kg in data set [3] (.08 millimoles/kg, oral, rats) came to 54%. Also, the inhibition in vivo at 324 µmol/kg in data set [3] (.324 millimoles/kg, oral, rats) was 63%. In addition, the “PCA activity (qualitative statement)” value in data set [8] is given as “Inac”. Besides, in [6], the ED40 is 2 mg/kg. Also, the ED50 in data set [7] (po) came out at 16 mg/kg. Also, the inhibition in vivo at 40 µmol/kg in [5] was 38%. Also, in the data set on human basophils, the EC50 was more than 100 µM.
On to `CCC(=O)NC1CCN(CC(C)c2ccc(C(=O)c3ccccc3)cc2)CC1` (stereo not shown) [Example 6E, 1-[2-(4-Benzoylphenyl)propyl]-4-propionylaminopiperidine], for which the ED40 in data set [6] is 30 mg/kg.
Consider `CC(CN1CCC(NC(=O)C2CC2)CC1)c1ccc(C(=O)c2ccccc2)cc1` (stereo not shown) [Example 6A, 1-[2-(4-benzoylphenyl)propyl]-4-cyclopropanecarbonylaminopiperidine], for which the inhibition in vivo at 80 µmol/kg in data set [3] (.08 millimoles/kg, oral, rats) was determined as 72%. Besides, in data set [3] (.324 millimoles/kg, oral, rats), the inhibition in vivo at 324 µmol/kg is 77%. The “PCA activity (qualitative statement)” value in data set [8] is on record as “Weak”. For the same molecule, the ED40 in data set [6] came out at 7.3 mg/kg. In data set [7] (po), this molecule yielded an ED50 of 16 mg/kg. Moreover, the “AEC50 (Approximate Effective Concentration resulting in 50% inhibition of allergic release of histamine)” value in the data set with human basophils is “Inac”.
`CC(CN1CCC(NC(=O)c2ccccc2)CC1)c1ccc(C(=O)c2ccccc2)cc1` (stereo not shown) [Example 6C, 1-[2-(4-Benzoylphenyl)propyl]-4-benzoylaminopiperidine]: the inhibition in vivo at 80 µmol/kg is 50% in [3] (.08 millimoles/kg, oral, rats) and 51% in data set [5]. Also, the inhibition in vivo at 324 µmol/kg in [3] (.324 millimoles/kg, oral, rats) was determined as 57%. Moreover, the 50% effect level in [7] (po) (ED50) was put at a dose of 23 mg/kg.
`CC(C(=O)N1CCCC(CN2CCCCC2)C1)c1cccc(C(=O)c2ccccc2)c1` (stereo not drawn) [Example 1F, 1-[α-(3-Benzoylphenyl)propionyl]-3-(1-piperidinylmethyl)piperidine hydrochloride]: in [3] (.08 millimoles/kg, oral, rats), the inhibition in vivo at 80 µmol/kg is 20%. In [4], the “Toxic (result in words)” value is listed as “Toxic” and the dead is listed as 5/8. For the same molecule, the “PCA activity (qualitative statement)” value in data set [8] was “Actv”.
As to `CC(C(=O)N1CCCCC1CN1CCCCC1)c1cccc(C(=O)c2ccccc2)c1` (stereo not drawn) [Example 1E, 1-[α-(3-Benzoylphenyl)propionyl]-2-(1-piperidinylmethyl)piperidine], in data set [3] (po), the inhibition in vivo at 80 µmol/kg is 11% and the inhibition in vivo at 324 µmol/kg turned out to be 67%.
Consider `CC(c1cccc(C(=O)c2ccccc2)c1)N1CCC(CN2CCOCC2)CC1` (stereo not shown) [Example 4A, 1-[1-(3-benzoylphenyl)ethyl]-4-(4-morpholinylmethyl)piperidine], for which, in data set [3] (.08 millimoles/kg, oral, rats), the inhibition in vivo at 80 µmol/kg was determined as 0%. Also, in data set [3] (.324 millimoles/kg, oral, rats), the inhibition in vivo at 324 µmol/kg turned out to be 38%. In [8], the “PCA activity (qualitative statement)” value is “Actv”. The ED40 in data set [6] is more than 30 mg/kg.
Consider `CC(c1cccc(C(=O)c2ccccc2)c1)N1CCCCC1CN1CCCCC1` (stereo not shown) [Example 4D, 1-[1-(3-Benzoylphenyl)ethyl]-2-(1-piperidinylmethyl)piperidine dihydrochloride monohydrate], for which the inhibition in vivo at 80 µmol/kg in [3] (.08 millimoles/kg, oral, rats) was found to be 27%. Further, the inhibition in vivo at 324 µmol/kg in data set [3] (.324 millimoles/kg, oral, rats) worked out at 59%; in data set [5], 56%.
Turning to `CC(CN1CCC(NC(=O)C2CCCCC2)CC1)c1ccc(C(=O)c2ccccc2)cc1` (stereo not shown) [Example 6I, 1-[2-(4-Benzoylphenyl)propyl]-4-cyclohexanecarbonylaminopiperidine], the “Ba (active or inactive)” value in data set [1] is reported as “Active”. For the same molecule, the EC50 in data set [2] is 2.6 µM.
As for `CC(CN1CCC(N2CCCCC2)CC1)c1cccc(C(=O)c2ccccc2)c1.Cl.Cl` (stereo not shown) [Example 3B, 1-[2-(3-Benzoylphenyl)propyl]-4-(1-piperidinyl)piperidine dihydrochloride], the inhibition in vivo at 80 µmol/kg in data set [3] (.08 millimoles/kg, oral, rats) was determined as 67%. The inhibition in vivo at 324 µmol/kg in [3] (.324 millimoles/kg, oral, rats) is 74%. In data set [4] (animals affected), the ataxic is listed as 1/8 and the hypothermia is 8/8. Further, in data set [4], the dead was 1/8. In data set [7] (po), the ED50 worked out at 7.4 mg/kg.
With `CC(c1cccc(C(=O)c2ccccc2)c1)N1CCCCC1CN1CCOCC1.Cl.Cl` (stereo not shown) [Example 4B, 1-[1-(3-Benzoylphenyl)ethyl]-2-(4-morpholinylmethyl)piperidine dihydrochloride], the inhibition in vivo at 80 µmol/kg in [3] (.08 millimoles/kg, oral, rats) came to 16%. Also, the inhibition in vivo at 324 µmol/kg in data set [3] (.324 millimoles/kg, oral, rats) was 48%. Moreover, the convulsions in [4] (animals affected at 15 min.) was 2/8.
Regarding `CC(CN1CCC(N2CCCCC2)CC1)c1ccc(C(=O)c2ccccc2)cc1` (stereo not shown) [Example 3D, 1-[2-(4-Benzoylphenyl)propyl]-4-(1-piperdinyl)piperidine dihydrochloride], the inhibition in vivo at 80 µmol/kg in data set [3] (.08 millimoles/kg, oral, rats) is 42%; in data set [5], 86%. Besides, the inhibition in vivo at 324 µmol/kg in data set [3] (.324 millimoles/kg, oral, rats) was 46%. Further, the “PCA activity (qualitative statement)” value in data set [8] was “Inac”. Moreover, the “AED40 (Approximate Effective Dose resulting in 40% inhibition of bronchoconstriction)” value in data set [6] was “Inac”. Moreover, the ED50 in data set [7] (po) is 29 mg/kg. For the same molecule, the EC50 in the data set with human basophils was determined as 90 µM.
As to `CC(c1cccc(C(=O)c2ccccc2)c1)N1CCCC(CN2CCOCC2)C1` (stereo not shown) [Example 4C, 1-[1-(3-Benzoylphenyl)ethyl]-3-(4-morpholinylmethyl)piperidine dihydrochloride monohydrate], the inhibition in vivo at 80 µmol/kg in data set [3] (.08 millimoles/kg, oral, rats) was found to be 0%. For the same molecule, the inhibition in vivo at 324 µmol/kg in data set [3] (.324 millimoles/kg, oral, rats) is 55%.
